Measurements reported in patent US10376499B2, “Combination therapy for treatment of resistant bacterial infections” (priority 2014, dated 2019).
In brackets after ≈: the same amount, converted by molar mass.

How the values were obtained:
Pseudomonas aeruginosa = experiment: MIC summary, 600 strains of Pseudomonas aeruginosa (Example 8); conditions: n = 600 strains; cmpd 1 and SUL each at 4 μg/mL where present
Acinetobacter baumannii = experiment: MIC summary, 600 strains of Acinetobacter baumannii (Example 8); conditions: n = 600 strains; cmpd 1 and SUL each at 4 μg/mL where present
A. baumannii [1] = experiment: MIC by broth microdilution (CLSI), panel of 60 A. baumannii clinical isolates (Example 1); conditions: Acinetobacter baumannii
A. baumannii [2] = experiment: MIC90 of common antibiotics+compound 1, 196 contemporary clinical isolates of A. baumannii (Example 4); conditions: B-lactam + Cmpd 1 (4 μg/mL)
A. baumannii [3] = experiment: MIC of sulbactam+compound 1 versus Unasyn®+compound 1 (Example 2); conditions: equivalent total amount of sulbactam in both combinations; FIG. 2
B. pseudomallei K96243 = type: in vivo, Burkholderia pseudomallei; conditions: Balb/c mice, lethal intranasal challenge; therapy from 4 hours post challenge for six consecutive days; FIG. 5

C[C@@H](O)[C@H]1C(=O)N2C(C(=O)O)=C(S[C@@H]3CN[C@H](C(=O)N(C)C)C3)[C@H](C)[C@H]12 [Meropenem, meropenem]
MIC50 (Pseudomonas aeruginosa): 0.5 | MIC90 (Pseudomonas aeruginosa): >8 | MIC50 (Acinetobacter baumannii): >8 | MIC90 (Acinetobacter baumannii): >8 | MIC Max (Acinetobacter baumannii): >8 | MIC Min (Acinetobacter baumannii): 0.0599 | MIC50 (A. baumannii [1]): 16 µg/mL (≈ 41.7 µM) | MIC90 (A. baumannii [1]): 32 µg/mL (≈ 83.4 µM) | MIC (A. baumannii [1]; strain ARC593, OXA-98): 1 µg/mL (≈ 2.61 µM) | MIC (A. baumannii [1]; strain ARC2058, OXA-95): 0.25 µg/mL (≈ 0.652 µM) | MIC (A. baumannii [1]; strain ARC2461, OXA-66, TEM-1): 2 µg/mL (≈ 5.22 µM) | MIC (A. baumannii [1]; strain ARC2462, TEM-1, OXA-66): 4 µg/mL (≈ 10.4 µM) | MIC (A. baumannii [1]; strain ARC2598, OXA*, TEM-1, OXA-113): 8 µg/mL (≈ 20.9 µM) | MIC (A. baumannii [1]; strain ARC2635, OXA-65, OXA-40, TEM-1): > 32 µg/mL | MIC (A. baumannii [1]; strain ARC2636, OXA-65, OXA-40, TEM-1): > 32 µg/mL | MIC (A. baumannii [1]; strain ARC2674, SHV-5, OXA-113): 8 µg/mL (≈ 20.9 µM) | MIC (A. baumannii [1]; strain ARC2675, SHV-5, OXA-113): > 32 µg/mL | MIC (A. baumannii [1]; strain ARC2681, OXA-40, TEM-1, OXA-132): 32 µg/mL (≈ 83.4 µM) | MIC (A. baumannii [1]; strain ARC2682, SHV-5, OXA-113): 32 µg/mL (≈ 83.4 µM) | MIC (A. baumannii [1]; strain ARC2777, OXA-172, TEM-1): 32 µg/mL (≈ 83.4 µM) | MIC (A. baumannii [1]; strain ARC2778, OXA-40, TEM-1, OXA-65): > 32 µg/mL | MIC (A. baumannii [1]; strain ARC2779 (A. baumannii/calcoaceticus complex), OXA-2, VIM-2): 16 µg/mL (≈ 41.7 µM) | MIC (A. baumannii [1]; strain ARC2780 (A. baumannii/calcoaceticus complex), OXA*, OXA-2, IMP-1): 32 µg/mL (≈ 83.4 µM) | MIC (A. baumannii [1]; strain ARC2782, OXA-66, OXA-23, TEM-1, PER-1): 16 µg/mL (≈ 41.7 µM) | MIC (A. baumannii [1]; strain ARC2788, OXA-65, TEM-1): 1 µg/mL (≈ 2.61 µM) | MIC (A. baumannii [1]; strain ARC3484, TEM-1, OXA-23, OXA-64): 32 µg/mL (≈ 83.4 µM) | MIC (A. baumannii [1]; strain ARC3485, OXA-82): 16 µg/mL (≈ 41.7 µM) | MIC (A. baumannii [1]; strain ARC3486, OXA-72, OXA-66, TEM-1): > 32 µg/mL | MIC (A. baumannii [1]; strain ARC3487, OXA-20, OXA-58, OXA-66): 8 µg/mL (≈ 20.9 µM) | MIC (A. baumannii [1]; strain ARC3488, OXA*, OXA-68): 4 µg/mL (≈ 10.4 µM) | MIC (A. baumannii [1]; strain ARC3489, OXA*, OXA-68): 4 µg/mL (≈ 10.4 µM) | MIC (A. baumannii [1]; strain ARC3490, TEM-1+, PSE-2, OXA-69): 0.5 µg/mL (≈ 1.3 µM) | MIC (A. baumannii [1]; strain ARC3491 (A. baumannii/calcoaceticus complex), OXA-215): 2 µg/mL (≈ 5.22 µM) | MIC (A. baumannii [1]; strain ARC3492, OXA-40, OXA-132, TEM-1): > 32 µg/mL | MIC (A. baumannii [1]; strain ARC3493, OXA-40, OXA-66): > 32 µg/mL | MIC (A. baumannii [1]; strain ARC3494, OXA-65): 0.25 µg/mL (≈ 0.652 µM) | MIC (A. baumannii [1]; strain ARC3495, OXA-40, OXA-109): > 32 µg/mL | MIC (A. baumannii [1]; strain ARC3513, TEM-1, OXA-23, OXA-65): 32 µg/mL (≈ 83.4 µM) | MIC (A. baumannii [1]; strain ARC3515, OXA-64, OXA-58): 4 µg/mL (≈ 10.4 µM) | MIC (A. baumannii [1]; strain ARC3657, OXA-130): 2 µg/mL (≈ 5.22 µM) | MIC (A. baumannii [1]; strain ARC3658, OXA-66, PER-1, TEM-1, OXA-23): 32 µg/mL (≈ 83.4 µM) | MIC (A. baumannii [1]; strain ARC3659, OXA-23, OXA*): 8 µg/mL (≈ 20.9 µM) | MIC (A. baumannii [1]; strain ARC3882, OXA-23, NDM-1, OXA-10*): > 32 µg/mL | MIC (A. baumannii [1]; strain ARC5073, OXA-23, TEM-1, OXA-64, PER-1): > 32 µg/mL | MIC (A. baumannii [1]; strain ARC5074, GES*, TEM-1, OXA-51): 8 µg/mL (≈ 20.9 µM) | MIC (A. baumannii [1]; strain ARC5075, SHV-5, OXA-113): 32 µg/mL (≈ 83.4 µM) | MIC (A. baumannii [1]; strain ARC5076, TEM-1, OXA-23, OXA-66): 32 µg/mL (≈ 83.4 µM) | MIC (A. baumannii [1]; strain ARC5077, OXA*, OXA-72): > 32 µg/mL | MIC (A. baumannii [1]; strain ARC5079, OXA-72, OXA-65): > 32 µg/mL | MIC (A. baumannii [1]; strain ARC5080, OXA-71, OXA-40): > 32 µg/mL | MIC (A. baumannii [1]; strain ARC5081, OXA-94, OXA-23): 16 µg/mL (≈ 41.7 µM) | MIC (A. baumannii [1]; strain ARC5082, OXA-66, OXA-23): > 32 µg/mL | MIC (A. baumannii [1]; strain ARC5083, OXA-66, OXA-23): 16 µg/mL (≈ 41.7 µM) | MIC (A. baumannii [1]; strain ARC5084, IMP-4(B), OXA-58, OXA-65): > 32 µg/mL | MIC (A. baumannii [1]; strain ARC5085, OXA*, TEM-1): 8 µg/mL (≈ 20.9 µM) | MIC (A. baumannii [1]; strain ARC5086, OXA*, TEM-1, OXA-72, OXA-66): > 32 µg/mL | MIC (A. baumannii [1]; strain ARC5087, OXA-66, OXA-23): 16 µg/mL (≈ 41.7 µM) | MIC (A. baumannii [1]; strain ARC5088, OXA-20, OXA-58, OXA-66): 8 µg/mL (≈ 20.9 µM) | MIC (A. baumannii [1]; strain ARC5089, PER*, TEM-1, OXA-23, OXA-66): 32 µg/mL (≈ 83.4 µM) | MIC (A. baumannii [1]; strain ARC5091, OXA-82, OXA-23): 32 µg/mL (≈ 83.4 µM) | MIC (A. baumannii [1]; strain ARC5092, OXA-23, OXA-64): 16 µg/mL (≈ 41.7 µM) | MIC90 (A. baumannii [2]): 16 µg/mL

CC1(C)S[C@@H]2[C@H](NC(=O)[C@H](N)c3ccccc3)C(=O)N2[C@H]1C(=O)O [ampicillin]
effect of ampicillin on efficacy (MIC of Unasyn®+compound 1 versus sulbactam+compound 1) (A. baumannii [3]): no effect on the efficacy

C[C@H]1c2cccc(O)c2C(=O)C2=C(O)[C@]3(O)C(=O)C(C(N)=O)=C(O)[C@@H](N(C)C)[C@@H]3[C@@H](O)[C@@H]21 [doxycycline]
survivorship (B. pseudomallei K96243): 40%
